Laboratory results as given in ChEMBL document CHEMBL3885861, “Open TG-GATES”.

Species: Rattus norvegicus
Assay: Open TG-GATES - Regimen: Daily Repeat
Type: toxicity, organism-based, Sprague-Dawley
Parameters: regimen Daily Repeat, gender Male, age 6 weeks
Details: in vivo, po, 50 mg/kg, route gavage, dose level Low; for APTT / Bas / Eos / Fbg / Hb / Ht / Lym / MCH / MCHC / MCV / Mono / Neu / PT / Plat / RBC / Ret / WBC: tissue Blood; for KIDNEY_L / KIDNEY_R / KIDNEY_TOTAL: tissue Kidney; for LIVER: tissue Liver; for A/G / ALP / ALT / AST / BUN / CRE / Ca / Cl / DBIL / GLC / IP / K / LDH / Na / PL / RALB / TBIL / TC / TG / TP / gamma-GTP: tissue Plasma

## CN1C(=O)CCS(=O)(=O)C1c1ccc(Cl)cc1 (configuration not stated) [CHLORMEZANONE]
72 h, time 3 day
  TERMINAL_BW: 226.8 g
  APTT: 15.5 s
  Bas: 0%
  Eos: 1%
  Fbg: 275.6 mg/dL
  Hb: 13.5 g/dL
  Ht: 40.1%
  Lym: 75.2%
  MCH: 22 pg
  MCHC: 33.8%
  MCV: 65.1 fL
  Mono: 2.8%
  Neu: 20.6%
  PT: 12 s
  Plat: 108.6 x10_4/uL
  RBC: 616.2 x10_4/ul
  Ret: 6.5%
  WBC: 81.9 x10_2/uL
  KIDNEY_L: 0.9 g
  KIDNEY_R: 0.9 g
  KIDNEY_TOTAL: 1.8 g
  LIVER: 11.1 g
  A/G: 0.9
  ALP: 1849 IU/L
  ALT: 50.8 IU/L
  AST: 75.8 IU/L
  BUN: 15.6 mg/dL
  CRE: 0.2 mg/dL
  Ca: 11 mg/dL
  Cl: 107.2 meq/L
  DBIL: 0.012 mg/dL
  GLC: 188.8 mg/dL
  IP: 7.5 mg/dL
  K: 4.3 meq/L
  LDH: 64.8 IU/L
  Na: 143.8 meq/L
  PL: 136.4 mg/dL
  RALB: 2.7 g/dL
  TBIL: 0.024 mg/dL
  TC: 78.4 mg/dL
  TG: 73.2 mg/dL
  TP: 5.8 g/dL
  gamma-GTP: 1 IU/L
[…], time 7 day
  TERMINAL_BW: 270.7 g
  APTT: 18.3 s
  Bas: 0%
  Eos: 0.8%
  Fbg: 275.8 mg/dL
  Hb: 13.2 g/dL
  Ht: 39.2%
  Lym: 79.2%
  MCH: 20.7 pg
  MCHC: 33.7%
  MCV: 61.4 fL
  Mono: 3%
  Neu: 16.2%
  PT: 11.8 s
  Plat: 118.3 x10_4/uL
  RBC: 639.2 x10_4/ul
  Ret: 6.4%
  WBC: 84.5 x10_2/uL
  KIDNEY_L: 1.1 g
  KIDNEY_R: 1.1 g
  KIDNEY_TOTAL: 2.1 g
  LIVER: 13.8 g
  A/G: 0.9
  ALP: 1690.2 IU/L
  ALT: 50 IU/L
  AST: 68.4 IU/L
  BUN: 17.8 mg/dL
  CRE: 0.2 mg/dL
  Ca: 11.5 mg/dL
  Cl: 106.4 meq/L
  DBIL: 0.016 mg/dL
  GLC: 183.8 mg/dL
  IP: 7.2 mg/dL
  K: 4.4 meq/L
  LDH: 74.2 IU/L
  Na: 143.4 meq/L
  PL: 150.8 mg/dL
  RALB: 2.8 g/dL
  TBIL: 0.028 mg/dL
  TC: 84.2 mg/dL
  TG: 75.2 mg/dL
  TP: 6 g/dL
  gamma-GTP: 1 IU/L
[…], time 14 day
  TERMINAL_BW: 321.2 g
  APTT: 16.3 s
  Bas: 0%
  Eos: 0.8%
  Fbg: 282.2 mg/dL
  Hb: 14.6 g/dL
  Ht: 42.3%
  Lym: 83.4%
  MCH: 20.9 pg
  MCHC: 34.6%
  MCV: 60.3 fL
  Mono: 1.6%
  Neu: 13.6%
  PT: 11.7 s
  Plat: 118.8 x10_4/uL
  RBC: 700.4 x10_4/ul
  Ret: 4.7%
  WBC: 92.5 x10_2/uL
  KIDNEY_L: 1.2 g
  KIDNEY_R: 1.2 g
  KIDNEY_TOTAL: 2.4 g
  LIVER: 16.1 g
  A/G: 0.9
  ALP: 1402 IU/L
  ALT: 41 IU/L
  AST: 61 IU/L
  BUN: 14.2 mg/dL
  CRE: 0.2 mg/dL
  Ca: 11.3 mg/dL
  Cl: 106.8 meq/L
  DBIL: 0.008 mg/dL
  GLC: 180.4 mg/dL
  IP: 6.9 mg/dL
  K: 4.1 meq/L
  LDH: 65.8 IU/L
  Na: 143.6 meq/L
  PL: 140.8 mg/dL
  RALB: 2.8 g/dL
  TBIL: 0.056 mg/dL
  TC: 83 mg/dL
  TG: 87.6 mg/dL
  TP: 6.1 g/dL
  gamma-GTP: 1 IU/L
[…], time 28 day
  TERMINAL_BW: 415.3 g
  APTT: 17.5 s
  Bas: 0%
  Eos: 1.2%
  Fbg: 274.6 mg/dL
  Hb: 15.1 g/dL
  Ht: 43%
  Lym: 77.6%
  MCH: 19.7 pg
  MCHC: 35.1%
  MCV: 56.2 fL
  Mono: 2.4%
  Neu: 18.6%
  PT: 11.7 s
  Plat: 106.6 x10_4/uL
  RBC: 765 x10_4/ul
  Ret: 2.5%
  WBC: 77 x10_2/uL
  KIDNEY_L: 1.3 g
  KIDNEY_R: 1.3 g
  KIDNEY_TOTAL: 2.7 g
  LIVER: 17.9 g
  A/G: 0.8
  ALP: 1043 IU/L
  ALT: 40.6 IU/L
  AST: 60 IU/L
  BUN: 15.4 mg/dL
  CRE: 0.3 mg/dL
  Ca: 10.6 mg/dL
  Cl: 106.6 meq/L
  DBIL: 0.01 mg/dL
  GLC: 176.6 mg/dL
  IP: 5.8 mg/dL
  K: 4.2 meq/L
  LDH: 53 IU/L
  Na: 142.8 meq/L
  PL: 137.4 mg/dL
  RALB: 2.8 g/dL
  TBIL: 0.06 mg/dL
  TC: 71.2 mg/dL
  TG: 117 mg/dL
  TP: 6.3 g/dL
  gamma-GTP: 1 IU/L
